Source: patent publication US9060529B2, “Method for treatment of lacto-N-biose-containing solution” (Morinaga Milk Industry Co., Ltd., priority 2010, dated 2015)

Tests used:
[1] = Test Example 2: effect of heating temperature and time on stability of LNB in neutral liquid composition (TLC); format: physicochemical; settings: pH 7.0; 90° C. for 0-60 minutes or 65-88° C. for 60 minutes
Experimental: The LNB powder prepared in the above Production Example 1 was dissolved at a concentration of 2% in a 0.1 M phosphate buffer of pH 7.0 to prepare a sample (liquid composition containing LNB).
5 mL samples of the prepared sample were dispensed into test tubes, which were heated at 90° C. for 0, 10, 20, 30, 40, 50 or 60 minutes, or heated at 65, 67, 70, 75, 80, 85 or 88° C. for 60 minutes.
Each of the heated samples was cooled to 15° C., and the same method as that described for Test Example 1 was used to determine whether or not decomposition had occurred, and if so, the extent of that decomposition.

[2] = Examples 1-3: TLC analysis of heated liquid preparations containing LNB; format: physicochemical
Experimental: Each of the heated samples was cooled to 15° C., and 1 μL was then spotted onto a silica gel thin layer chromatography (TLC) plate. The plate was developed using an 80% acetonitrile solvent, and was then immersed in a 5% sulfuric acid solution and colorized by heating in an oven. The existence or absence of decomposed or denatured products (N-acetylglucosamine dehydrate and galactose) and the amount of those decomposed or denatured products were evaluated visually to determine whether or not decomposition had occurred, and if so, the extent of that decomposition.
100 g of the LNB powder prepared in the above Production Example 1 was dissolved in 9.9 kg of purified water, and 0.1 M hydrochloric acid was added to the solution to adjust the pH to 4.5. The resulting aqueous solution was preheated for 3 minutes at 70° C. using a UHT sterilizer (manufactured by Morinaga Engineering Co., Ltd.), subsequently sterilized at 130° C. for 2 seconds, and then cooled to 15° C., yielding 10 kg of a liquid preparation containing LNB.
100 g of the LNB powder prepared in the above Production Example 1 was added to 9.9 kg of a commercially available orange juice (manufactured by Morinaga Milk Industry Co., Ltd.), and the resulting mixture was heated at 80° C. for 15 minutes and then cooled to 15° C. 100 mL aliquots of the juice were used to fill glass bottles, which were then sealed, yielding 100 bottles of orange juice containing LNB.
100 g of the LNB powder prepared in the above Production Example 1 was dissolved in 9.9 kg of purified water, and 0.1 M citric acid was added to the solution to adjust the pH to 5.0. The resulting aqueous solution was heated at 90° C. for 30 minutes, and then cooled to 15° C., yielding 10 kg of a liquid preparation containing LNB.

decomposition of LNB (TLC) ([2]; Example 1: aqueous solution pH 4.5, 70° C. for 3 minutes, then 130° C. for 2 seconds): had not decomposed
decomposition of LNB (TLC) ([2]; Example 2: orange juice pH 4.51, 80° C. for 15 minutes): had not decomposed
decomposition of LNB (TLC) ([2]; Example 3: aqueous solution pH 5.0 (citric acid), 90° C. for 30 minutes): had not decomposed
Structure (SMILES): CC(=O)N[C@H]1C(O)O[C@H](CO)[C@@H](O)[C@@H]1O[C@@H]1O[C@H](CO)[C@H](O)[C@H](O)[C@H]1O (stereo partly shown) [LNB, Lacto-N-biose]
stability of LNB (decomposition by TLC) [1]: decomposed or denatured products were detected under all of the different heat treatment conditions
